In patent US8450333B2, “Molecules for regulating cell death” (The Regents of The University of California, priority 2003, dated 2013):

What was measured:
[1] = target: T1, recombinant Dnm1 (Saccharomyces cerevisiae, UniProt P54861); experiment: Dnm1 GTPase activity, radioactive TLC-based assay; assay type: biochemical, yeast
T1 construct: made in house; host or cells: insect cells (baculovirus expression system)
T1 sequence (P54861 1-757): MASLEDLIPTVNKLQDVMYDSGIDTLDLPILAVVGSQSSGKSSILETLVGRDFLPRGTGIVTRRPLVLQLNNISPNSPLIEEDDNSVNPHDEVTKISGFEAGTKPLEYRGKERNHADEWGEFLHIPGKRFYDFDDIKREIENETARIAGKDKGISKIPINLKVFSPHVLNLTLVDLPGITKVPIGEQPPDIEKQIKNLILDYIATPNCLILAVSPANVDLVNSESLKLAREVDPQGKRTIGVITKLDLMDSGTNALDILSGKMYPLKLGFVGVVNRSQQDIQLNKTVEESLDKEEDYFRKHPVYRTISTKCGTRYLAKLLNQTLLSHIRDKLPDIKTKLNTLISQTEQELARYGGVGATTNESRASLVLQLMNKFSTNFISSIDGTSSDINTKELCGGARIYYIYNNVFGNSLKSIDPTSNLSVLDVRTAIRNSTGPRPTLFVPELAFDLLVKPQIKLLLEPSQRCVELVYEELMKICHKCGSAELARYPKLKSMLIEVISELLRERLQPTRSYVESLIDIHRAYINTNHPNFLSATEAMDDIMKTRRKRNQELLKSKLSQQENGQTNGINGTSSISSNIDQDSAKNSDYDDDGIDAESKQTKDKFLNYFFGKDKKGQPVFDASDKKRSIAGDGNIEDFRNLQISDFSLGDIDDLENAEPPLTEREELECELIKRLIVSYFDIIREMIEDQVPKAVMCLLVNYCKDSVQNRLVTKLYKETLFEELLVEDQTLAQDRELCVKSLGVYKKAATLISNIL
From the text: In order to discern a detailed mechanism for mitochondrial fission, we have begun to purify and characterize activities associated with known fission components, with the ultimate goal of reconstituting this event in vitro. Towards this goal, we have successfully expressed and purified active recombinant Dnm1 (the yeast mitochondrial fission DRP) from insect cells, using a baculovirus expression system. Using an established radioactive TLC-based assay for GTPase activity, we characterized the kinetic properties of recombinant Dnm1 under low salt conditions (FIG. 10A). […] The Km for GTP for Dnm1 is near 200 μM, greater than that observed for assembled dynamin (˜10 μM). The significance of this difference as it relates to the function of these DRPs will be interesting to determine.
Determining the mechanism of mfisi-1 inhibition is critical for assessing how DRPs function in mitochondrial fission. We will perform standard steady-state kinetic assays to determine the mechanism of inhibition by mfisi-1 using established GTPase assays in the presence of variable concentrations of substrate (GTP) and mfisi-1. […] Nucleotides are resolved using thin layer chromatography, and quantification of GTP and GDP product is performed using a Phosphorimager. All rates are calculated using time points where product formation is linear over time.

[2] = target: T2, dynamin-1 (Homo sapiens, UniProt Q05193); experiment: Assembly-stimulated GTP hydrolysis by dynamin-1; assay type: biochemical
T2 sequence (Q05193 1-864): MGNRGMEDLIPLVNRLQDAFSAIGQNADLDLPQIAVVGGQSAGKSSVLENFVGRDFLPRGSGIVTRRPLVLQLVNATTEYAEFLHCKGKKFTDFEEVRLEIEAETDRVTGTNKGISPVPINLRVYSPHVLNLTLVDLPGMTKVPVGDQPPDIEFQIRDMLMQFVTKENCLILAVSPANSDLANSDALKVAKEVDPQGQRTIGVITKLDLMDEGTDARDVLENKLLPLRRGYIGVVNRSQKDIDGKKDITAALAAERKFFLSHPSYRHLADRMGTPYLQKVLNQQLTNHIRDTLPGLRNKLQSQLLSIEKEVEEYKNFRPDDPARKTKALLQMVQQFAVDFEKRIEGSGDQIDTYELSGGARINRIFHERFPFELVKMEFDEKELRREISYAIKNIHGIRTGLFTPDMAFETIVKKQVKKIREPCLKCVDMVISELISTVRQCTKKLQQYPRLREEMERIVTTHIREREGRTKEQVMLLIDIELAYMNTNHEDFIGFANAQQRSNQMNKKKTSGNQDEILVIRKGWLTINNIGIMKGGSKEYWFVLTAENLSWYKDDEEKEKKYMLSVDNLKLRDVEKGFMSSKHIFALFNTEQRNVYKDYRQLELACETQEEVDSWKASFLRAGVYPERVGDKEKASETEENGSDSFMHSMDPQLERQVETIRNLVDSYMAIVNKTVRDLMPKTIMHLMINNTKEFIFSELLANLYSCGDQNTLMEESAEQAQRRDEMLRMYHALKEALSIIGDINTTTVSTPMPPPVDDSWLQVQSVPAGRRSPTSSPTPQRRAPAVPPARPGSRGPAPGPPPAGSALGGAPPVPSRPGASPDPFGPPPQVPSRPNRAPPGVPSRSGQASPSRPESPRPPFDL
From the text: Our observations raise the question of whether mfisi-1 is simply a general inhibitor of GTPase super family members and/or DRPs. It seems unlikely that mfisi-1 is an inhibitor of all GTPase superfamily members, given that it has no effect on GTPase-dependent activities, such as maintenance of the actin cytoskeleton. To more directly address this question, however, we examined the effects of mfisi-1 on the DRP, dynamin-1, which functions during endocytosis in the scission of clathrin coated pits from the plasma membrane. […] We will continue to explore the specificity of mfisi-1 for DRPs by determining its effects on the mammalian Dnm1 ortholog, Drp1. […] Taken together, our data are consistent with mfisi-1 functioning in vivo as a selective inhibitor of the dynamin-related GTPase, Dnm1, to block mitochondrial fission.

[3] = system: Δdnm1 cells; experiment: Mitochondrial morphology in Δdnm1 yeast cells; assay type: cell-based
From the text: Formally, the small molecules we identified could produce their phenotypes by either inhibiting or activating fission or fusion. To distinguish the exact effects of mfisi-1 and other small molecules identified in our screens on mitochondrial dynamics, we have directly measured the rates of fission and fusion events after drug addition in yeast cells by examining the behavior of mitochondria using time-lapse fluorescence microscopy. […] In contrast, in DMSO treated control cells, both fission and fusion events were easily detected in the same time frame.
To determine the target of mfisi-2, we will characterize this small molecule using the assays for fission. We will also determine whether mfisi-2 affects mitochondrial morphology in mammalian cells. If this is the case, then mfisi-2 might inhibit mitochondrial fission by affecting conserved fission-related activities. […] If mfisi-2 produces mitochondrial net-like structures in mammalian cells, we will determine its effects on apoptosis as described previously. Prioritization and characterization of potential mitochondrial fusion inhibitors In our screens for mitochondrial fusion inhibitors, we identified a total of 37 compounds. […] To determine whether fragmentation in drug-treated cells is strictly dependent upon Dnm1-dependent fission, we determined the effects of these small molecules on mitochondrial morphology in Δdnm1 cells. […]

COc1cc(-n2c(S)nc3ccccc3c2=O)c(Cl)cc1Cl [mfisi-1, 3-(2,4-Dichloro-5-methoxy-phenyl)-2-mercapto-3H-quinazolin-4-one]
IC50 [1]: ~10 µM
mode of inhibition versus GTP ([1]; mfisi-1 at its IC50, GTP 10 μM-2 mM): NOT a pure competitive inhibitor
effect on assembly-stimulated rates of GTP hydrolysis for dynamin-1 [2]: had no effect
effect on mitochondrial morphology in Δdnm1 cells [3]: did not change the net-like morphology
